Measurements: patent US9908895B2, “Tricyclic fused thiophene derivatives as JAK inhibitors” (Incyte Corporation, priority 2012, dated 2018)
Counter-ions that a name gives are not always drawn. Like-named read-outs stand apart in the source and are kept apart here.

Legend:
Format in all cases: biochemical
human JAK1 [1] = target: human JAK1 (Homo sapiens, UniProt P23458); experiment: In vitro JAK kinase assay (HTRF), JAK1; conditions: 1 mM ATP
Method in brief: (§1)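 Baculovirus-expressed catalytic domains (JAK1 a.a. 837-1142, JAK2 a.a. 828-1132) phosphorylate 500 nM biotinylated peptide at 1 mM ATP, Tris pH 7.8, 1 h at room temperature. EDTA stop and HTRF detection with Eu-Py20/SA-APC; IC50 values derived.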

human JAK2 = human JAK2 (Homo sapiens (Human), UniProt O60674); experiment: In vitro JAK kinase assay (HTRF), JAK2; conditions: 1 mM ATP
Method: Compounds herein were tested for inhibitory activity of JAK targets according to the following in vitro assay described in Park et al., Analytical Biochemistry 1999, 269, 94-104. The catalytic domains of human JAK1 (a.a. 837-1142), JAK2 (a.a. 828-1132) and JAK3 (a.a. 781-1124) were expressed using baculovirus in insect cells and purified. The catalytic activity of JAK1, JAK2 or JAK3 was assayed by measuring the phosphorylation of a biotinylated peptide. The phosphorylated peptide was detected by homogenous time resolved fluorescence (HTRF). IC50s of compounds were measured for each kinase in the 40 μL reactions that contain the enzyme, ATP and 500 nM peptide in 50 mM Tris (pH 7.8) buffer with 100 mM NaCl, 5 mM DTT, and 0.1 mg/mL (0.01%) BSA. For the 1 mM IC50 measurements, ATP concentration in the reactions was 1 mM. Reactions were carried out at room temperature for 1 hour and then stopped with 20 μL 45 mM EDTA, 300 nM SA-APC, 6 nM Eu-Py20 in assay buffer (Perkin Elmer, Boston, Mass.). Binding to the Europium labeled antibody took place for 40 minutes and HTRF signal was measured on a PHERA star plate reader (BMG, Cary, N.C.). The Example compounds were each tested in the Example A assay (see Table 1 for data for the compounds of the examples as tested by the assay of Example A at 1 mM ATP).

human JAK1 [2] = experiment: In vitro JAK kinase assay (HTRF), JAK1; conditions: ratio of JAK2 IC50 to JAK1 IC50 at 1 mM ATP
Method in brief: as §1

human JAK2, sequence (O60674 828-1132): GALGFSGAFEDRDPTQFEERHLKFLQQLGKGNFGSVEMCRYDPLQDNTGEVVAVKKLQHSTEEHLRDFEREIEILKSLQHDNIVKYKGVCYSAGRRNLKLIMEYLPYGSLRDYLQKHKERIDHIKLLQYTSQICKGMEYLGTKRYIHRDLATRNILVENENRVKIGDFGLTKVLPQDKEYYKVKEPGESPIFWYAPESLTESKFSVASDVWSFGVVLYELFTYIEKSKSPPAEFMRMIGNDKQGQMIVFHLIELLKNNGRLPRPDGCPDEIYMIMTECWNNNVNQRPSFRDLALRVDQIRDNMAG

Compound	JAK2/JAK1 (human JAK1 [2])	other results
Cc1nc2cnc3ccsc3c2n1[C@@H]1CC[C@@H](CC#N)[C@H](O)C1.Cc1nc2cnc3ccsc3c2n1[C@H]1CC[C@H](CC#N)[C@@H](O)C1 (mixture of isomers) [41 (first peak), [(1R,2S,4S)-4-(2-Methyl-1H-imidazo[4,5-d]thieno[3,2-b]pyridin-1-yl)-2-hydroxycyclohexyl]acetonitrile and [(1S,2R,4R)-4-(2-methyl-1H-imidazo[4,5-d]thieno[3,2-b]pyridin-1-yl)-2-hydroxycyclohexyl]acetonitrile]		IC50 (human JAK1 [1]; JAK1 IC50 (nM)): < 100 nM; IC50 (human JAK2): < 1000 nM
Cc1nc2cnc3ccsc3c2n1[C@@H]1CC[C@@H](CC#N)[C@H](O)C1.Cc1nc2cnc3ccsc3c2n1[C@H]1CC[C@H](CC#N)[C@@H](O)C1 (mixture of isomers) [41 (second peak), [(1R,2S,4S)-4-(2-Methyl-1H-imidazo[4,5-d]thieno[3,2-b]pyridin-1-yl)-2-hydroxycyclohexyl]acetonitrile and [(1S,2R,4R)-4-(2-methyl-1H-imidazo[4,5-d]thieno[3,2-b]pyridin-1-yl)-2-hydroxycyclohexyl]acetonitrile]		IC50 (human JAK1 [1]; JAK1 IC50 (nM)): > 2000 nM
Cc1nc2cnc3ccsc3c2n1[C@H]1CC[C@H](CC#N)[C@H](O)C1 (racemic) [Example 34, Mixture of [(1R,2R,4S)-2-hydroxy-4-(2-methyl-1H-imidazo[4,5-d]thieno[3,2-b]pyridin-1-yl)cyclohexyl]acetonitrile trifluoroacetate and [(1S,2S,4R)-2-hydroxy-4-(2-methyl-1H-imidazo[4,5-d]thieno[3,2-b]pyridin-1-yl)cyclohexyl]acetonitrile trifluoroacetate]		IC50 (human JAK1 [1]; read-out: JAK1 IC50): < 1000 nM; IC50 (human JAK2): < 2000 nM
C[C@@H](O)c1nc2cnc3ccsc3c2n1C1CCNCC1F (single isomer, unassigned) [9 (2nd peak)]	>10	IC50 (human JAK1 [1]; read-out: JAK1 IC50): < 1000 nM
C[C@@H](O)c1nc2cnc3ccsc3c2n1C1CCC(O)(CC#N)CC1 (single isomer, unassigned) [24 (second peak)]	>10	IC50 (human JAK2): > 2000 nM
CC(C)OC(=O)NC[C@H]1CC[C@H](n2c([C@@H](C)O)nc3cnc4ccsc4c32)CC1 [Example 84, Isopropyl [(trans-4-{2-[(1R)-1-hydroxyethyl]-1H-imidazo[4,5-d]thieno[3,2-b]pyridin-1-yl}cyclohexyl)methyl]carbamate]	>10	
C[C@@H](O)c1nc2cnc3ccsc3c2n1[C@H]1CC[C@H](CNC(=O)OC2CCOC2)CC1 (stereo partly drawn) [Example 85, Tetrahydrofuran-3-yl [(trans-4-{2-[(1R)-1-hydroxyethyl]-1H-imidazo[4,5-d]thieno[3,2-b]pyridin-1-yl}cyclohexyl)methyl]carbamate]	>10	
COC(=O)NC[C@H]1CC[C@H](n2c(CC#N)nc3cnc4ccsc4c32)CC1 [Example 86, Methyl({trans-4-[2-(cyanomethyl)-1H-imidazo[4,5-d]thieno[3,2-b]pyridin-1-yl]cyclohexyl}methyl)carbamate]	>10	
CCOC(=O)NC[C@H]1CC[C@H](n2c(CC#N)nc3cnc4ccsc4c32)CC1 [Example 87, Ethyl({trans-4-[2-(cyanomethyl)-1H-imidazo[4,5-d]thieno[3,2-b]pyridin-1-yl]cyclohexyl}methyl)carbamate]	>10	
CC(C)OC(=O)NC[C@H]1CC[C@H](n2c(CC#N)nc3cnc4ccsc4c32)CC1 [Example 88, Isopropyl({trans-4-[2-(cyanomethyl)-1H-imidazo[4,5-d]thieno[3,2-b]pyridin-1-yl]cyclohexyl}methyl)carbamate]	>10	
CCC(=O)NC[C@H]1CC[C@H](n2c(CC#N)nc3cnc4ccsc4c32)CC1 [Example 89, N-({trans-4-[2-(Cyanomethyl)-1H-imidazo[4,5-d]thieno[3,2-b]pyridin-1-yl]cyclohexyl}methyl)propanamide]	>10	
N#CCc1nc2cnc3ccsc3c2n1[C@H]1CC[C@H](CC#N)CC1 [Example 90, {1-[trans-4-(Cyanomethyl)cyclohexyl]-1H-imidazo[4,5-d]thieno[3,2-b]pyridin-2-yl}acetonitrile]	>10	
N#CC[C@H]1CC[C@H](n2c(CO)nc3cnc4ccsc4c32)CO1 [Example 91, {(2R,5S)-5-[2-(Hydroxymethyl)-1H-imidazo[4,5-d]thieno[3,2-b]pyridin-1-yl]tetrahydro-2H-pyran-2-yl}acetonitrile]	>10	
((1R,2R,4S)-2-Hydroxy-4-{2-[(1R)-1-hydroxyethyl]-1H-imidazo[4,5-d]thieno[3,2-b]pyridin-1-yl}cyclohexyl)acetonitrile and ((1S,2S,4R)-2-hydroxy-4-{2-[(1R)-1-hydroxyethyl]-1H-imidazo[4,5-d]thieno[3,2-b]pyridin-1-yl}cyclohexyl)acetonitrile [36 (first peak)]	>10	
((1R,2R,4S)-2-Hydroxy-4-{2-[(1R)-1-hydroxyethyl]-1H-imidazo[4,5-d]thieno[3,2-b]pyridin-1-yl}cyclohexyl)acetonitrile and ((1S,2S,4R)-2-hydroxy-4-{2-[(1R)-1-hydroxyethyl]-1H-imidazo[4,5-d]thieno[3,2-b]pyridin-1-yl}cyclohexyl)acetonitrile [36 (second peak)]	>10	
((1R,2S,4S)-2-Hydroxy-4-{2-[(1R)-1-hydroxyethyl]-1H-imidazo[4,5-d]thieno[3,2-b]pyridin-1-yl}cyclohexyl)acetonitrile trifluoacetate and ((1S,2R,4R)-2-hydroxy-4-{2-[(1R)-1-hydroxyethyl]-1H-imidazo[4,5-d]thieno[3,2-b]pyridin-1-yl}cyclohexyl)acetonitrile trifluoacetate [37 (first peak)]	>10	
((1R,2S,4S)-2-Hydroxy-4-{2-[(1R)-1-hydroxyethyl]-1H-imidazo[4,5-d]thieno[3,2-b]pyridin-1-yl}cyclohexyl)acetonitrile trifluoacetate and ((1S,2R,4R)-2-hydroxy-4-{2-[(1R)-1-hydroxyethyl]-1H-imidazo[4,5-d]thieno[3,2-b]pyridin-1-yl}cyclohexyl)acetonitrile trifluoacetate [37 (second peak)]	>10	
[(1R,2S,4S)-4-(2-Ethyl-1H-imidazo[4,5-d]thieno[3,2-b]pyridin-1-yl)-2-hydroxycyclohexyl]acetonitrile and [(1S,2R,4R)-4-(2-ethyl-1H-imidazo[4,5-d]thieno[3,2-b]pyridin-1-yl)-2-hydroxycyclohexyl]acetonitrile [40 (first peak)]	>10	
